The record followed here is ChEMBL document CHEMBL1944551, “An integrated computational workflow for efficient and quantitative modeling of renin inhibitors” (Bioorg Med Chem, 2012).

The structures appear in SMILES notation.

The data set in a line: physchem. To be noted: octanol/buffer.
The term logP denotes the decadic logarithm of the partition coefficient of the neutral form, usually between octanol and water. Lower therefore signals a more hydrophilic compound. In turn, `CCNCc1ccc(Cl)c(CN(C(=O)[C@H]2CNCC(=O)N2c2cnc(OCCCOCc3ccccc3OC)nc2)C2CC2)c1` came in with a log partition coefficient (logP) of 3.21.
In turn, `CCNCc1ccc(Cl)c(CN(C(=O)[C@H]2CNCC(=O)N2c2ccc(CCCOc3cccc(Cl)c3)cc2)C2CC2)c1` gave a logP of 6.06.
For the compound `CCNCc1ccc(Cl)c(CN(C(=O)[C@H]2CNCC(=O)N2c2ccc(CCCOc3c(F)ccc(F)c3F)cc2)C2CC2)c1`, the logP stood at 5.89.
In the case of `CCNCCc1ccc(Cl)c(CN(C(=O)[C@H]2CNCC(=O)N2c2ccc(OCCOc3c(Cl)cc(C)cc3Cl)cc2)C2CC2)c1`, the lipophilicity (logP) is 6.08.
The compound `CCNCCc1ccc(Cl)c(CN(C(=O)[C@H]2CNCC(=O)N2c2ccc(OCCOc3c(Cl)cc(C)cc3Cl)nc2)C2CC2)c1` showed a log partition coefficient (logP) of 5.25.
For `CCNCCc1ccc(Cl)c(CN(C(=O)[C@H]2CNCC(=O)N2c2ccc(COC(=O)c3ccccc3)cc2)C2CC2)c1`, the log partition coefficient (logP) is 4.98.
As to `CCNCCc1ccc(Cl)c(CN(C(=O)[C@H]2CNCC(=O)N2c2ccc(OCCCOCc3ccccc3)cc2)C2CC2)c1`, the logP was determined as 5.35.
In turn, `CCNCCc1ccc(Cl)c(CN(C(=O)[C@H]2CNCC(=O)N2c2ccc(OCCCOCc3ccccc3OC)cc2)C2CC2)c1` showed a logP of 5.31.
For `CCNCCc1ccc(Cl)c(CN(C(=O)[C@H]2CNCC(=O)N2c2cnc(OCCCOCc3ccccc3OC)nc2)C2CC2)c1`, the logP worked out at 3.3.
The result for `CCNCCc1ccc(Cl)c(CN(C(=O)[C@H]2CNCC(=O)N2c2ccc(CCCOc3cccc(Cl)c3)cc2)C2CC2)c1` reads 6.15.
In the case of `CCNCCc1ccc(Cl)c(CN(C(=O)[C@H]2CNCC(=O)N2c2ccc(CCCOc3c(F)ccc(F)c3F)cc2)C2CC2)c1`, the lipophilicity (logP) was 5.97.
The compound `Cc1cc(Cl)c(OCCOc2ccc(N3C(=O)CNC[C@@H]3C(=O)N(Cc3cc(CCNCC(F)F)ccc3Cl)C3CC3)cc2)c(Cl)c1` had a log partition coefficient (logP) of 6.15.
With `Cc1cc(Cl)c(OCCOc2ccc(N3C(=O)CNC[C@@H]3C(=O)N(Cc3cc(CCNCC(F)F)ccc3Cl)C3CC3)cn2)c(Cl)c1` the figure was 5.33.
The result for `O=C(OCc1ccc(N2C(=O)CNC[C@@H]2C(=O)N(Cc2cc(CCNCC(F)F)ccc2Cl)C2CC2)cc1)c1ccccc1` reads 5.05; that for `O=C([C@H]1CNCC(=O)N1c1ccc(OCCCOCc2ccccc2)cc1)N(Cc1cc(CCNCC(F)F)ccc1Cl)C1CC1`, 5.43; that for `COc1ccccc1COCCCOc1ccc(N2C(=O)CNC[C@@H]2C(=O)N(Cc2cc(CCNCC(F)F)ccc2Cl)C2CC2)cc1`, 5.38.
In turn, `COc1ccccc1COCCCOc1ncc(N2C(=O)CNC[C@@H]2C(=O)N(Cc2cc(CCNCC(F)F)ccc2Cl)C2CC2)cn1` had a logP of 3.37.
`O=C([C@H]1CNCC(=O)N1c1ccc(CCCOc2cccc(Cl)c2)cc1)N(Cc1cc(CCNCC(F)F)ccc1Cl)C1CC1` came in with a logP of 6.22.
With `O=C([C@H]1CNCC(=O)N1c1ccc(CCCOc2c(F)ccc(F)c2F)cc1)N(Cc1cc(CCNCC(F)F)ccc1Cl)C1CC1`, the log partition coefficient (logP) is 6.05.
In turn, `Cc1cc(Cl)c(OCCOc2ccc(N3C(=O)CNC[C@@H]3C(=O)N(Cc3cc(CNCCF)ccc3Cl)C3CC3)cc2)c(Cl)c1` displayed a logP of 5.77.
`Cc1cc(Cl)c(OCCOc2ccc(N3C(=O)CNC[C@@H]3C(=O)N(Cc3cc(CNCCF)ccc3Cl)C3CC3)cn2)c(Cl)c1` yielded a log partition coefficient (logP) of 4.94.
In the case of `O=C(OCc1ccc(N2C(=O)CNC[C@@H]2C(=O)N(Cc2cc(CNCCF)ccc2Cl)C2CC2)cc1)c1ccccc1`, the logP amounted to 4.66.
Turning to `O=C([C@H]1CNCC(=O)N1c1ccc(OCCCOCc2ccccc2)cc1)N(Cc1cc(CNCCF)ccc1Cl)C1CC1`, the log partition coefficient (logP) was found to be 5.04.
Take `COc1ccccc1COCCCOc1ccc(N2C(=O)CNC[C@@H]2C(=O)N(Cc2cc(CNCCF)ccc2Cl)C2CC2)cc1`: the logP was found to be 4.99.
Compound `COc1ccccc1COCCCOc1ncc(N2C(=O)CNC[C@@H]2C(=O)N(Cc2cc(CNCCF)ccc2Cl)C2CC2)cn1` came in with a lipophilicity (logP) of 2.98.
Take `O=C([C@H]1CNCC(=O)N1c1ccc(CCCOc2cccc(Cl)c2)cc1)N(Cc1cc(CNCCF)ccc1Cl)C1CC1`: the logP was 5.84.
As to `O=C([C@H]1CNCC(=O)N1c1ccc(CCCOc2c(F)ccc(F)c2F)cc1)N(Cc1cc(CNCCF)ccc1Cl)C1CC1`, the log partition coefficient (logP) was 5.66.
With `Cc1ccccc1Cc1c(C(=O)N2CCNCC2)c2ccccc2n1-c1ccsc1` the figure was 5.02; with `COCCc1ccc(Cl)c(CN(C(=O)[C@H]2CNCC(=O)N2c2ccc(OCCOc3c(Cl)cc(C)cc3Cl)cc2)C2CC2)c1`, 6.05.
In turn, `COCCc1ccc(Cl)c(CN(C(=O)[C@H]2CNCC(=O)N2c2ccc(OCCOc3c(Cl)cc(C)cc3Cl)nc2)C2CC2)c1` yielded a logP of 5.22.
Turning to `COCCc1ccc(Cl)c(CN(C(=O)[C@H]2CNCC(=O)N2c2ccc(COC(=O)c3ccccc3)cc2)C2CC2)c1`, the logP worked out at 4.95.
`COCCc1ccc(Cl)c(CN(C(=O)[C@H]2CNCC(=O)N2c2ccc(OCCCOCc3ccccc3)cc2)C2CC2)c1` came in with a logP of 5.32.
`COCCc1ccc(Cl)c(CN(C(=O)[C@H]2CNCC(=O)N2c2ccc(OCCCOCc3ccccc3OC)cc2)C2CC2)c1` came in with a logP of 5.27.
The compound `COCCc1ccc(Cl)c(CN(C(=O)[C@@H]2CNCC(=O)N2c2cnc(OCCCOCc3ccccc3OC)nc2)C2CC2)c1` gave a log partition coefficient (logP) of 3.26.
The compound `COCCc1ccc(Cl)c(CN(C(=O)[C@H]2CNCC(=O)N2c2ccc(CCCOc3cccc(Cl)c3)cc2)C2CC2)c1` yielded a log partition coefficient (logP) of 6.12.
With `COCCc1ccc(Cl)c(CN(C(=O)[C@H]2CNCC(=O)N2c2ccc(CCCOc3c(F)ccc(F)c3F)cc2)C2CC2)c1` the figure was 5.94; with `CNCc1ccc(Cl)c(CN(C(=O)[C@H]2CNCC(=O)N2c2ccc(OCCOc3c(Cl)cc(C)cc3Cl)cc2)C2CC2)c1`, 5.65.
Turning to `CNCc1ccc(Cl)c(CN(C(=O)[C@H]2CNCC(=O)N2c2ccc(OCCOc3c(Cl)cc(C)cc3Cl)nc2)C2CC2)c1`, the logP stood at 4.82.
Compound `CNCc1ccc(Cl)c(CN(C(=O)[C@H]2CNCC(=O)N2c2ccc(COC(=O)c3ccccc3)cc2)C2CC2)c1` yielded a logP of 4.55.
The compound `CNCc1ccc(Cl)c(CN(C(=O)[C@H]2CNCC(=O)N2c2ccc(OCCCOCc3ccccc3)cc2)C2CC2)c1` displayed a logP of 4.92.
In turn, `CNCc1ccc(Cl)c(CN(C(=O)[C@H]2CNCC(=O)N2c2ccc(OCCCOCc3ccccc3OC)cc2)C2CC2)c1` showed a logP of 4.88.
The result for `CNCc1ccc(Cl)c(CN(C(=O)[C@@H]2CNCC(=O)N2c2cnc(OCCCOCc3ccccc3OC)nc2)C2CC2)c1` reads 2.87; that for `CNCc1ccc(Cl)c(CN(C(=O)[C@H]2CNCC(=O)N2c2ccc(CCCOc3cccc(Cl)c3)cc2)C2CC2)c1`, 5.72.
`CNCc1ccc(Cl)c(CN(C(=O)[C@H]2CNCC(=O)N2c2ccc(CCCOc3c(F)ccc(F)c3F)cc2)C2CC2)c1` yielded a lipophilicity (logP) of 5.55.
In turn, `CCNCc1ccc(Cl)c(CN(C(=O)[C@H]2CNCC(=O)N2c2ccc(OCCOc3c(Cl)cc(C)cc3Cl)cc2)C2CC2)c1` yielded a logP of 5.99.
The result for `CCNCc1ccc(Cl)c(CN(C(=O)[C@H]2CNCC(=O)N2c2ccc(OCCOc3c(Cl)cc(C)cc3Cl)nc2)C2CC2)c1` reads 5.16; that for `CCNCc1ccc(Cl)c(CN(C(=O)[C@H]2CNCC(=O)N2c2ccc(COC(=O)c3ccccc3)cc2)C2CC2)c1`, 4.89.
The result for `CCNCc1ccc(Cl)c(CN(C(=O)[C@H]2CNCC(=O)N2c2ccc(OCCCOCc3ccccc3)cc2)C2CC2)c1` reads 5.26.
Compound `CCNCc1ccc(Cl)c(CN(C(=O)[C@H]2CNCC(=O)N2c2ccc(OCCCOCc3ccccc3OC)cc2)C2CC2)c1` came in with a logP of 5.22. This logP and that of the compound before are within 0.2 log units of each other.
